Each structure is given as a SMILES string. pIC50, pKi: −log10 of the molar value. Like-named read-outs stand apart in the source and are kept apart here.

These results are taken from EP1614683B1, “Indazole compounds and pharmaceutical compositions for inhibiting protein kinases, and methods for their use” (priority 1999, dated 2001).

The target of data set [1] is unphosphorylated VEGF-R2Δ50 (Homo sapiens, UniProt P35968, DEL940-989/E990V). As to the kind of experiment: biochemical. Particulars: for inhibition at 0.05 µM: read-out: FLVK ** (% inhibition).
The subject of data set [2] is human umbilical vein endothelial cells (HUVEC). Put plainly: HUVEC proliferation assay (VEGF-stimulated, MTT). Particulars: Homo sapiens, HUVEC, Table 1. The format is cell-based.
In another data set the target is LCK tyrosine kinase (Homo sapiens, UniProt P06239, C224D/P223M). As to the kind of experiment: LCK spectrophotometric assay. Conditions: Table 1; compound concentration 1 µM; read-out: Lck-P* (% inhibition). The format is biochemical. The protocol:
The spectrophotometric assay was carried out as described above for VEGF-R2, except for the following changes in concentration: LCK = 60 nM, MgCl2 = 0 mM, poly(E4Y1) = 20 mM.

A short description of a further data set: in vitro. In kind it is in vitro ADME, human. Conditions: 2 h; for remaining at 2 h, 5 µM: read-out: % remain (HLM, 2 h). The protocol:
Compound metabolism in human liver microsomes was measured by LC-MS analytical assay procedures as follows. First, human liver microsomes (HLM) were thawed and diluted to 5 mg/mL with cold 100 mM potassium phosphate (KPO4) buffer. Appropriate amounts of KPO4 buffer, NADPH-regenerating solution (containing B-NADP, glucose-6-phosphate, glucose-6-phosphate dehydrogenase, and MgCl2), and HLM were preincubated in 13 x 100 mm glass tubes at 37 C for 10 min. (3 tubes per test compound--triplicate). Test compound (5 µM final) was added to each tube to initiate reaction and was mixed by gentle vortexing, followed by incubation at 37 °C. At t=0, 2 h, a 250-µL sample was removed from each incubation tube to separate 12 x 75 mm glass tubes containing 1 mL ice-cold acetonitrile with 0.05 µM reserpine. […] Supernatant was transferred to new 12 x 75 mm glass tubes and evaporated by Speed-Vac centrifugal vacuum evaporator. Samples were reconstituted in 200 µL 0.1 % formic acid/acetonitrile (90/10) and vortexed vigorously to dissolve. The samples were then transferred to separate polypropylene microcentrifuge tubes and centrifuged at 14000 x g for 10 min. (Fisher Micro 14, S/N M0017580). For each replicate (#1-3) at each timepoint (0 and 2 h), an aliquot sample of each test compound was combined into a single HPLC vial insert (6 total samples) for LC-MS analysis, which is described below.

The target of the next data set is human FGF-R1 (Homo sapiens, UniProt P11362, C488A/C584S/L457V). As to the kind of experiment: FGF-R spectrophotometric assay. Particulars: Table 1; compound concentration 1 µM; read-out: FGF-P* (% inhibition). The format is biochemical. How it is done:
The spectrophotometric assay was carried out as described above for VEGF-R2, except for the following changes in concentration: FGF-R = 50 nM, ATP = 2 mM, and poly(E4Y1) =15 mM.

Setting [3] is: + albumin, read-out: HUVEC + albumin IC50.
Where [4] appears, read: human liver microsomes, 5 µM test compound, 37 °C.

Chain of LCK tyrosine kinase (P06239 223-509 P223M/C224D): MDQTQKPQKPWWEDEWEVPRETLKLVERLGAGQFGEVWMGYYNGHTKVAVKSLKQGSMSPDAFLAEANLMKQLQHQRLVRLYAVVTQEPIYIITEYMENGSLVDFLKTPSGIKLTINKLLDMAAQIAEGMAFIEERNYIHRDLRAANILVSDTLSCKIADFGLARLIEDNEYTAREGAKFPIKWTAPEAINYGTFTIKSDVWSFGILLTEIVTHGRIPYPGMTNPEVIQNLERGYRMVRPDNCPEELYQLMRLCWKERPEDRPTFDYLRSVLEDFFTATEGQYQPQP
Chain of unphosphorylated VEGF-R2Δ50 (P35968 with tags, fused parts or gaps DEL940-989/E990V limits assumed): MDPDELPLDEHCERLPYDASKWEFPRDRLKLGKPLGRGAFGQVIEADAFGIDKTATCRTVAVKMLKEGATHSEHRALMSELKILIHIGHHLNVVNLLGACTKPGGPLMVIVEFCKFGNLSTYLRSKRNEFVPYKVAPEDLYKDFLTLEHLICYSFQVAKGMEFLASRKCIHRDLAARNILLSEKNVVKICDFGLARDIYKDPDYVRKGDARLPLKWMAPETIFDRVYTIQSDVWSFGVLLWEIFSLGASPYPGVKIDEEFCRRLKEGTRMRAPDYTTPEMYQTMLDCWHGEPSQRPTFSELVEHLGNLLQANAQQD
Chain of human FGF-R1 (P11362 456-766 L457V/C488A/C584S): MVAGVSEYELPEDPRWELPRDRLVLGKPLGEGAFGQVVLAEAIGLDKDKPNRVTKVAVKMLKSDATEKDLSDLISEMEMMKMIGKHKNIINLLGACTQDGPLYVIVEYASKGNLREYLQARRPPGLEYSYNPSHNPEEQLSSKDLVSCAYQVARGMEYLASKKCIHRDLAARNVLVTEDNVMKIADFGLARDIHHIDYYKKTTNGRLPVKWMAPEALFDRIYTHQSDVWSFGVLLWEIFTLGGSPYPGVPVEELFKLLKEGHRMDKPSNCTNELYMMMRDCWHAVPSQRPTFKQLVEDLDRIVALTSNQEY

For the compound `C[C@@H]1C[C@H]1C(=O)Nc1cccc(C(=O)c2ccc3c(/C=C/c4ccccn4)n[nH]c3c2)c1` (racemic) [Reference Example 41(h), 6-[3-((2-RS-trans-methylcyclopropyl)carboxamido)benzoyl]-3-E-[2-(pyridin-2-yl)ethenyl]-1H-indazole], the inhibition at 0.05 µM in data set [1] is 90%. Moreover, the negative logarithm of the IC50 (pIC50) in data set [2] (setting [3]) is 7.60; in data set [2] (read-out: HUVEC IC50) it was 8.70. At LCK tyrosine kinase, the inhibition at 1 µM is 30%. For the same compound, the remaining at 2 h, 5 µM in the data set “in vitro” (setting [4]) was 8%.
For `O=C(Cc1ccccn1)Nc1cccc(C(=O)c2ccc3c(/C=C/c4ccccc4)n[nH]c3c2)c1` [19(g), 6-[3-(pyridin-2-ylacetamido)benzoyl]-3-E-styryl-1H-indazole], in data set [1] (FLVK ** (Ki), Table 1), the pKi is 9.07. Besides, the pIC50 was 5.72 in data set [2] (setting [3]) and 7.74 in data set [2] (read-out: HUVEC IC50). Also, the inhibition at 1 µM on LCK tyrosine kinase was 19%; on human FGF-R1 it was 59%. Besides, the remaining at 2 h, 5 µM in the data set “in vitro” (setting [4]) amounted to 90%.
For `Cc1cc(C(=O)Nc2cc(C(=O)c3ccc4c(/C=C/c5ccccn5)n[nH]c4c3)c(C)cc2C)n(C)n1` [41(min)], in data set [1], the inhibition at 0.05 µM was determined as 93%. Further, the pIC50 in data set [2] (setting [3]) is 7.84; in data set [2] (read-out: HUVEC IC50), 8.89. Also, the inhibition at 1 µM was found to be 6% on LCK tyrosine kinase and 46% at human FGF-R1. Further, the “% remain (HLM, 2 h)” value in “in vitro” (human, microsomes, 5 µM) turned out to be 94%.
Turning to `COc1cccc(CNC(=O)c2ccccc2Sc2ccc3c(/C=C/c4ccccn4)n[nH]c3c2)c1` [Reference Example 35(aa)], in data set [1], the inhibition at 0.05 µM is 99%. The pIC50 in data set [2] (setting [3]) was 8.30. Moreover, the “% remain (HLM, 2 h)” value in the data set “in vitro” (setting [4]) turned out to be 15%.
Taken in the same sequence, the figures for `O=C(NCc1ccco1)c1ccccc1Sc1ccc2c(/C=C/c3ccccn3)n[nH]c2c1` [Reference Example 35(bb), 6-[2-((fur-2-yl)methylcarbamoyl)phenylsulfanyl]-3-E-[2-(pyridin-2-yl)ethenyl]-1H-indazole] were 87%, 8.39 and 8%.
Regarding `Cn1cccc1C(=O)NNC(=O)c1ccccc1Sc1ccc2c(/C=C/c3ccccn3)n[nH]c2c1` [Reference Example 35(e), 6-[2-((1-methylpyrrol-2-ylhydrazido)carbonyl)phenylsulfanyl]-3-E-[2-(pyridin-2-yl)ethenyl)-1H-indazole], the inhibition at 0.05 µM in data set [1] was 99%. Moreover, in data set [2] (setting [3]), the pIC50 was 8.32. Further, the inhibition at 1 µM stood at 56% at LCK tyrosine kinase and 69% on human FGF-R1. In “in vitro” (setting [4]), the “% remain (HLM, 2 h)” value was 34%.
For the compound `C=C(C)CNC(=O)c1ccccc1Sc1ccc2c(/C=C/c3ccccn3)n[nH]c2c1` [Reference Example 35(ee), 6-[2-(2-Methyl-2-propenylcarbamoyl)phenylsulfanyl]-3-E-[2-(pyridin-2-yl)ethenyl]-1H-indazole], in data set [1], the inhibition at 0.05 µM came out at 82%. In data set [2] (setting [3]), the pIC50 was 8.52. Further, the “% remain (HLM, 2 h)” value in “in vitro” (setting [4]) was 13%.
In the case of `O=C(NCc1ccccc1F)c1ccccc1Sc1ccc2c(/C=C/c3ccccn3)n[nH]c2c1` [Reference Example 35(f)], the inhibition at 0.05 µM in data set [1] was 100%. The “% remain (HLM, 2 h)” value in the data set “in vitro” (setting [4]) is 15%.
Consider `COc1ccc(CNC(=O)c2ccccc2Sc2ccc3c(/C=C/c4ccccn4)n[nH]c3c2)cc1` [Reference Example 35(g)], for which, in data set [1], the inhibition at 0.05 µM was 100%. Also, the pIC50 in data set [2] (setting [3]) is around 7.82. Besides, the “% remain (HLM, 2 h)” value in “in vitro” (setting [4]) is reported as 53%.
Turning to `Cc1ccc(CNC(=O)c2ccccc2Sc2ccc3c(/C=C/c4ccccn4)n[nH]c3c2)o1` [Reference Example 35(h), 6-[2-((5-Methylfur-2-yl)methylcarbamoyl)phenylsulfanyl)-3-E-[2-(pyridin-2-yl)ethenyl]-1H-indazole], in data set [1], the inhibition at 0.05 µM amounted to 100%. Also, in data set [2] (setting [3]), the pIC50 was 8.44. In the data set “in vitro” (setting [4]), the “% remain (HLM, 2 h)” value came out at 9%.
The corresponding values for `C=CCNC(=O)c1ccccc1Sc1ccc2c(/C=C/c3ccccn3)n[nH]c2c1` [Reference Example 35(u), 6-[2-(Allylcarbamoyl)phenylsulfanyl]-3-E-[2-(pyridin-2-yl)ethenyl]-1H-indazole] are 79%, 8.55 and 27%.
On to `CCNC(=O)c1ccccc1Sc1ccc2c(/C=C/c3ccccn3)n[nH]c2c1` [Reference Example 35(x), 6-[2-(Ethylcarbamoyl)phenylsulfanyl]-3-E-[2-(pyridin-2-yl)ethenyl]-1H-indazole], for which the inhibition at 0.05 µM in data set [1] worked out at 75%. Besides, the pIC50 in data set [2] (setting [3]) is 8.70. Moreover, in “in vitro” (setting [4]), the “% remain (HLM, 2 h)” value turned out to be 37%.
In the case of `CCOCCNC(=O)c1ccccc1Sc1ccc2c(/C=C/c3ccccn3)n[nH]c2c1` [Reference Example 35(z), 6-[2-(2-(Ethoxy)ethylcarbamoyl)phenylsulfanyl]-3-E-[2-(pyridin-2-yl)ethenyl]-1H-indazole], in data set [1], the inhibition at 0.05 µM is 95%. The negative logarithm of the IC50 (pIC50) in data set [2] (setting [3]) is 8.15. For the same compound, the “% remain (HLM, 2 h)” value in “in vitro” (setting [4]) worked out at 2%.
With `C=CCn1nc(C)cc1C(=O)Nc1cc(C(=O)c2ccc3c(/C=C/c4ccccn4)n[nH]c3c2)ccc1C` [Reference Example 41(ff), 6-[3-((1-Allyl-3-methyl-1H-pyrazol-5-yl)carboxamido)-4-methylbenzoyl]-3-E-[2-(pyridin-2-yl)ethenyl]-1H-indazole], the inhibition at 0.05 µM in data set [1] was 98%. In addition, the negative logarithm of the IC50 (pIC50) in data set [2] (setting [3]) was 8.25. In addition, the inhibition at 1 µM at LCK tyrosine kinase is 15%. Besides, the “% remain (HLM, 2 h)” value in “in vitro” (setting [4]) was 68%.
As for `Cc1cc(C(=O)Nc2cc(C(=O)c3ccc4c(/C=C/c5ccccn5)n[nH]c4c3)ccc2C)n(C)n1` [Reference Example 41(hh), 6-[3-((1,3-Dimethyl-1H-pyrazol-5-yl)carboxamido)-4-methylbenzoyl]-3-E-[2-(pyridin-2-yl)ethenyl]-1H-indazole], the inhibition at 0.05 µM in data set [1] came to 98%. In addition, the pIC50 in data set [2] (setting [3]) was 8.41. For the same compound, the inhibition at 1 µM on LCK tyrosine kinase is 13%; at human FGF-R1 it was 74%.
Take `CCc1cc(C(=O)Nc2cc(C(=O)c3ccc4c(/C=C/c5ccccn5)n[nH]c4c3)ccc2C)n(C)n1` [Reference Example 41(jj), 6-[3-((3-Ethyl-1-methyl-1H-pyrazol-5-yl)carboxamido)-4. methylbenzoyl]-3-E-[2-(pyridin-2-yl)ethenyl]-1H-indazole]: in data set [1], the inhibition at 0.05 µM was 87%. Also, the pIC50 in data set [2] (setting [3]) was 7.68. Further, the values for the inhibition at 1 µM at LCK tyrosine kinase and at human FGF-R1 were 19% and 81%, respectively.
For the compound `CCc1cc(C(=O)Nc2cccc(C(=O)c3ccc4c(/C=C/c5ccccn5)n[nH]c4c3)c2)n(C)n1` [Reference Example 41(v), 6-[3-((3-Ethyl-1-methyl-1H-pyrazol-5-yl)carboxamido)benzoyl]-3-E-[2-(pyridin-2-yl)ethenyl)-1H-indazole], the inhibition at 1 µM came out at 68% in data set [1] (read-out: FLVK ** (% inhibition, cell marked *)); 52% on LCK tyrosine kinase; 68% at human FGF-R1. Moreover, the pIC50 in data set [2] (setting [3]) was 7.92.
On to `O=C(Nc1cccc(C(=O)c2ccc3c(/C=C/c4ccccn4)n[nH]c3c2)c1)c1ccnc(Cl)c1` [Reference Example 41(w), 6-[3-((2-chloropyridin-4-yl)carboxamido)benzoyl]-3-E-[2-(pyridin-2-yl)ethenyl]-1H-indazole], for which the inhibition at 0.05 µM in data set [1] stood at 97%. For the same compound, in data set [2] (setting [3]), the negative-log IC50 (pIC50) is around 8.00. In addition, the figures for the inhibition at 1 µM at LCK tyrosine kinase and on human FGF-R1 were 49% and 67%, respectively.
The corresponding values for `CC(C)COC(=O)Nc1cccc(C(=O)c2ccc3c(/C=C/c4ccccn4)n[nH]c3c2)c1` [Reference Example 41(y)] are 98%, 7.00 to 7.52, 61% and 86%.
In the case of `O=C(c1cccc(NC(=O)c2cc(Cl)ccn2)c1)c1ccc2c(/C=C/c3ccccn3)n[nH]c2c1` [Reference Example 41(z), 6-[3-((4-chloropyridin-2-yl)carboxamido)benzoyl]-3-E-[2-(pyridin-2-yl)ethenyl]-1H-indazole], the inhibition at 0.05 µM in data set [1] was found to be 100%. In data set [2] (setting [3]), the pIC50 was 8.12. Also, the inhibition at 1 µM at LCK tyrosine kinase came to 54%; at human FGF-R1, 74%.

As a reminder, the inhibition is how much of the control response was suppressed. As a reminder, the pIC50 is the negative decadic logarithm of the IC50, by convention in mol/L. The pKi is the Ki on a negative log10 scale, so that one unit is a factor of ten.
